ChEMBL document CHEMBL1201862, “PubChem BioAssay data set” (2004)
Active and inactive are the calls of the source.

Columns and labels:
[1] = target: T1, Sentrin-specific protease 8 (Homo sapiens, UniProt Q96LD8); type: functional;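 further: luminescence read-out of SENP8 inhibition, dose-response confirmation following an ultra-high-throughput screen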
T1 sequence (Q96LD8 whole entry): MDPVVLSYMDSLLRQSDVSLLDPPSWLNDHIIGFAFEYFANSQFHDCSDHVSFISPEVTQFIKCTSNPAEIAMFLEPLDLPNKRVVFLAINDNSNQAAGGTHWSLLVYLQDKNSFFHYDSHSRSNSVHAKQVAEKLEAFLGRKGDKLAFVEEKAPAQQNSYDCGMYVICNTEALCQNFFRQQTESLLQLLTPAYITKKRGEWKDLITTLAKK

[2] = target: T2, Sentrin-specific protease 7 (Homo sapiens, UniProt Q9BQF6); type: functional;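 further: Luminescence-based dose-response confirmation of ultra-high-throughput screening hits, measuring inhibition of SENP7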
T2 sequence (Q9BQF6 whole entry): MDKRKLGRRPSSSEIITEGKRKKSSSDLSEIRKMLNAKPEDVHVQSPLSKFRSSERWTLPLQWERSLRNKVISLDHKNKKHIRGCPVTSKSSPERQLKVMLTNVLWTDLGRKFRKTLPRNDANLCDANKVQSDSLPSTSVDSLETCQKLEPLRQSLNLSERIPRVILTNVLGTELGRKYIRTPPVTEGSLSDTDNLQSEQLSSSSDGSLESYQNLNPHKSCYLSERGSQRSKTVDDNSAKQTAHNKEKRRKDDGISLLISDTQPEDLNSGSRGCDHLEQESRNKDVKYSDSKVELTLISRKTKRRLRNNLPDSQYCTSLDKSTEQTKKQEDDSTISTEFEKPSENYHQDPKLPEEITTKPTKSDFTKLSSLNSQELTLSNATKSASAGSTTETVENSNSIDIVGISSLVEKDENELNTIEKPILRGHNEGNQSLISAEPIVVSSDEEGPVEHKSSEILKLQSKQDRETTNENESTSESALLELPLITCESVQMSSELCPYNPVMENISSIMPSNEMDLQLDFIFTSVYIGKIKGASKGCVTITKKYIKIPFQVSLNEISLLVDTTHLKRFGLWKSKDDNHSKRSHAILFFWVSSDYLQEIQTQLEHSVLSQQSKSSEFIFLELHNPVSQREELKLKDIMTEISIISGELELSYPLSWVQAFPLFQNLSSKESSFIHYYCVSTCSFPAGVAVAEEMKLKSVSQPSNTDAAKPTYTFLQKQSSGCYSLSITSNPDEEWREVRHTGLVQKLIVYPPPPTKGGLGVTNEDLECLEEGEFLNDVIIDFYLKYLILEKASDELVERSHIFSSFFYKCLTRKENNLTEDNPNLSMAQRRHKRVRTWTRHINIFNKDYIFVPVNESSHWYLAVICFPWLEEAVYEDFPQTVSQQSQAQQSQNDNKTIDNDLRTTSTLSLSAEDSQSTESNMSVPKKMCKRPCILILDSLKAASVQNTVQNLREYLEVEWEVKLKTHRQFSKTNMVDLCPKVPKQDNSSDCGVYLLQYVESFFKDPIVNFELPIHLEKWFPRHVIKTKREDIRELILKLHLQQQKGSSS

Caspase-3 = target: T3, Caspase-3 (Homo sapiens, UniProt P42574); type: functional;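 further: Dose-response selectivity test against caspase-3 for candidate inhibitors of sentrin-specific proteases (SENPs)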
T3 sequence (P42574 whole entry): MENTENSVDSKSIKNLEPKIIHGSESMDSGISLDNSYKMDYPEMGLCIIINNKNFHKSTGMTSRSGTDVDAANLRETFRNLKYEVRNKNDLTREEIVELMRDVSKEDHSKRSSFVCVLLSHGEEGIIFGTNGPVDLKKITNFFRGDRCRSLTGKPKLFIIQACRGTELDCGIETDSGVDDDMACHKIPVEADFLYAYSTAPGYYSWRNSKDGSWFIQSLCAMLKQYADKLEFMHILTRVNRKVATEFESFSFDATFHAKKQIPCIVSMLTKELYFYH

Protein skinhead-1 = target: T4, Protein skinhead-1 (Caenorhabditis elegans, UniProt P34707); type: functional
T4 sequence (P34707 whole entry): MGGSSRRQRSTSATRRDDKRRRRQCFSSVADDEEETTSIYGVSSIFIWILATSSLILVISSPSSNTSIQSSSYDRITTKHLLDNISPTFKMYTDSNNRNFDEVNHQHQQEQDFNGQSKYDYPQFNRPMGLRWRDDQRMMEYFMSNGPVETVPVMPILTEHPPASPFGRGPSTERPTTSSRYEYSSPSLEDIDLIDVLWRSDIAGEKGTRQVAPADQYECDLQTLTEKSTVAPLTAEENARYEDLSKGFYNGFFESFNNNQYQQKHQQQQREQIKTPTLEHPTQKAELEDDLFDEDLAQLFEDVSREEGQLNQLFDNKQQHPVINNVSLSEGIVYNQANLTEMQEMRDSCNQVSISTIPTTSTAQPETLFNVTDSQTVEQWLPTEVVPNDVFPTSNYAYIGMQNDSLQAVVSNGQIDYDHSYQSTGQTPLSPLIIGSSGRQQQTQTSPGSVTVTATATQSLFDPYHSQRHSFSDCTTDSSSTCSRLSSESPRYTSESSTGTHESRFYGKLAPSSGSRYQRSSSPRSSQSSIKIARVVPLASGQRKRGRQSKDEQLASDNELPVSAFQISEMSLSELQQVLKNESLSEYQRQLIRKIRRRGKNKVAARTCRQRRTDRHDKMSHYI

[3] = target: T5, Sentrin-specific protease 6 (Homo sapiens, UniProt Q9GZR1); type: functional;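 further: Luminescence-based dose-response confirmatory assay of SENP6 inhibition, following up an ultra-high-throughput screen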
T5 sequence (Q9GZR1 whole entry): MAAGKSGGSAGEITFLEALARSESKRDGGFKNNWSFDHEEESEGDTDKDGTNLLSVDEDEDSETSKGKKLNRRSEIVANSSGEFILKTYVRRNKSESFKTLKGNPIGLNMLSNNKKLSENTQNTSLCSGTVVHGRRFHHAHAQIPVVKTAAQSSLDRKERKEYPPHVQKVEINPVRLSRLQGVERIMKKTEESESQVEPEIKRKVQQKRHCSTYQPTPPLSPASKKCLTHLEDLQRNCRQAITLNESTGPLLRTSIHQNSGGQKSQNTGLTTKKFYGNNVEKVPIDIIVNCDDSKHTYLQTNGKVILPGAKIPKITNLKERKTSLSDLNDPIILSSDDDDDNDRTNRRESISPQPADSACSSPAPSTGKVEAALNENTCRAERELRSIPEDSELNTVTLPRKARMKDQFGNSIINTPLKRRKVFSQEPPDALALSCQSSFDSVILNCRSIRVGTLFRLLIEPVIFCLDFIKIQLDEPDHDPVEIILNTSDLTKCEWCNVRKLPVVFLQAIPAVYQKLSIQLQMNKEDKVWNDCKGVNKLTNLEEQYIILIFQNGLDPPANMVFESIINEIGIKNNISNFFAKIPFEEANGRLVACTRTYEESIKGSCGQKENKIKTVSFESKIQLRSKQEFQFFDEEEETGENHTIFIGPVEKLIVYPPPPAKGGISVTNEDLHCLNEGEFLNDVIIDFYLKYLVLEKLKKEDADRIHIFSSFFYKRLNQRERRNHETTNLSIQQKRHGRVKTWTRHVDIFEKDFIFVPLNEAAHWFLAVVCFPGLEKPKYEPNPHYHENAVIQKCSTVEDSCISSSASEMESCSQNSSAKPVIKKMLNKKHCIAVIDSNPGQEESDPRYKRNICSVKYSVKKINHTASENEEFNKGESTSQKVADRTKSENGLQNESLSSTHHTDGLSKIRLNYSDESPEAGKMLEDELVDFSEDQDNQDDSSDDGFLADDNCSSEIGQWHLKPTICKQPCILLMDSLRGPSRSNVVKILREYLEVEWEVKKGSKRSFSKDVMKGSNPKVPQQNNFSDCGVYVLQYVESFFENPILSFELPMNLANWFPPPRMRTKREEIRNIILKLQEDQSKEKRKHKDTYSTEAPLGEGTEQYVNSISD

[4] = target: T6, Adenosylmethionine-8-amino-7-oxononanoate aminotransferase (Mycobacterium tuberculosis, UniProt P9WQ81); test: Mycobacterium tuberculosis BioA enzyme inhibitor Measured in Biochemical System Using Plate Reader - 2163-02_Inhibitor_Dose_CherryPick_Activity.; type: functional, Mycobacterium tuberculosis UT205
T6 sequence (P9WQ81 whole entry): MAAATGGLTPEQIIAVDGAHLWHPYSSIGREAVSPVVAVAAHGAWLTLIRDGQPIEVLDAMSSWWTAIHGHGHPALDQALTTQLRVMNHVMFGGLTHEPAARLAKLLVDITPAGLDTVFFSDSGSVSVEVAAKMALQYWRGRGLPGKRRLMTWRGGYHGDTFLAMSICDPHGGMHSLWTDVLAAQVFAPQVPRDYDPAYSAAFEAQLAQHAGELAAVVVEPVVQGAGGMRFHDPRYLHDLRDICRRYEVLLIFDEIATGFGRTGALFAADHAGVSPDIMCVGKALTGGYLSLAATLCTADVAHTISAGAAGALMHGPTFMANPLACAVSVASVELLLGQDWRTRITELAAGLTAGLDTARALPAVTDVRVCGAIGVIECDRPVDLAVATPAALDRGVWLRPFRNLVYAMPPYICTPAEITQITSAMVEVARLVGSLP

[5] = cytotoxicity toward NIH3T3 fibroblasts, dose response, counter-screen, cell-based, ATP luminescence, mouse fibroblasts (AID 2010); type: functional;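 further: cells exposed to compound for about 90 hours before reading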
[6] = target: T7, Apoptotic protease-activating factor 1 (Homo sapiens, UniProt O14727); type: functional
T7 sequence (O14727 whole entry): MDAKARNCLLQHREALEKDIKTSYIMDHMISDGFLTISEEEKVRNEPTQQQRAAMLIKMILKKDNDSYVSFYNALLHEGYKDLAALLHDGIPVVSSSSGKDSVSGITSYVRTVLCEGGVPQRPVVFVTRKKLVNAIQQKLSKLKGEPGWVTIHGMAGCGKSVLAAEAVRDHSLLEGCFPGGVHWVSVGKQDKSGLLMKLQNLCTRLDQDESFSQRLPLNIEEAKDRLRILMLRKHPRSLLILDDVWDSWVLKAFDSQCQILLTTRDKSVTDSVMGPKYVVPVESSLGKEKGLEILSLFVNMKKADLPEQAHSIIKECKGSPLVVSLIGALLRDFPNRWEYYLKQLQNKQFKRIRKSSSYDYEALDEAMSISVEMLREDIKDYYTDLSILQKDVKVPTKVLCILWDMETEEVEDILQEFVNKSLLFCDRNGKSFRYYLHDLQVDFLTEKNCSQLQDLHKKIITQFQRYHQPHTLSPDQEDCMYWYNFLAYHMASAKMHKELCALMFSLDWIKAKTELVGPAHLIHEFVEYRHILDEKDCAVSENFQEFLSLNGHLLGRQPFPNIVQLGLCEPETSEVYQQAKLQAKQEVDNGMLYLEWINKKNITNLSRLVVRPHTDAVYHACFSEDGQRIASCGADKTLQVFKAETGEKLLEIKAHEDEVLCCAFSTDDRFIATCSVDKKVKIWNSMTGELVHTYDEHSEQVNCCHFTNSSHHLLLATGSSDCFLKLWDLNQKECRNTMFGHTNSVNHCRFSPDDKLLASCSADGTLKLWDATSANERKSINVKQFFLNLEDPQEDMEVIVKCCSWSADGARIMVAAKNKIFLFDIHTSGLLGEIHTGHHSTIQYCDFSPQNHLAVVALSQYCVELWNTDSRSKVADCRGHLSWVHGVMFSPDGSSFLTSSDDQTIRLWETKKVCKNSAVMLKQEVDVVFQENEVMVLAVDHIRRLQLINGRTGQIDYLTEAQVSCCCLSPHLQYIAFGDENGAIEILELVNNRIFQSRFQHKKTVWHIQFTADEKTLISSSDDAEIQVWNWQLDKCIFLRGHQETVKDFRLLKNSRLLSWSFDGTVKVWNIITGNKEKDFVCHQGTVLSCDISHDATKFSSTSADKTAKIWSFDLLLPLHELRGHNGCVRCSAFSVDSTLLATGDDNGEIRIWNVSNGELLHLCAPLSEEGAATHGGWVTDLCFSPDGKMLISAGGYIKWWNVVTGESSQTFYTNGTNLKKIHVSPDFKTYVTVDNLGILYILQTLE

[7] = inhibitors of intracellular T. cruzi replication, confirmation, NIH3T3 host cells, beta-gal luminescence (AID 2044); type: functional, cell-based;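 further: intracellular parasites grown in NIH/3T3 mouse fibroblasts as host cells; luminescent beta-galactosidase reporter signal from transgenic T. cruzi replicating inside host cells; inhibitors lower the luminescence signal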
[8] = Luminescence Cell-Based Dose Confirmation HTS to Identify Activators of 5'UTR Stem-Loop Driven Alpha-Synuclein mRNA Translation in H4 Neuroglioblastoma Cells. [Related pubchem assays: 1829 (Project Summary), 1814 (Primary HTS)]; type: functional
H4 = test: Luminescence Cell-Based Dose Response HTS to Identify Activators of 5'UTR Stem-Loop Driven Prion Protein mRNA Translation in H4 Neuroglioblastoma Cells. [Related pubchem assays: 1829 (Project Summary), 1814 (Primary HTS)]; type: functional; details: Homo sapiens
[9] = Luminescence Cell-Based Dose Response HTS to Identify Activators of Luciferase Translation or Activity in H4 […] Cells. [Related pubchem assays: 1829 (Project Summary), 1814 (Primary HTS)]; type: functional

| Compound | IC50 [1] | IC50 [2] | IC50 (Caspase-3) | IC50 [3] | AC50 [4] | also measured |
| --- | --- | --- | --- | --- | --- | --- |
| c1ccc(CCNc2ncnc3c2cnn3-c2ccccc2)cc1 | 22.9 µM (active) | 7.14 µM (active) | 22.5 µM (active) | 19.6 µM (active) | – | IC50 (Protein skinhead-1): > 100 µM (inactive) |
| O=C(C[C@@H]1C[C@@H]2c3cc(NC(=O)c4cccnc4)ccc3O[C@@H]2[C@@H](CO)O1)NCc1cccnc1 | – | – | – | – | 10.7 µM (active) | – |
| O=C(N/N=C/C(Cl)=C\c1ccccc1)c1cccs1 | > 100 µM (inactive) | 5.83 µM (active) | 28.7 µM (active) | > 100 µM (inactive) | – | – |
| O=C(Nc1ccc(N2CCOCC2)c(Cl)c1)c1cccnc1 | – | – | – | – | 13.3 µM (active) | – |
| O=C(O)c1ccc(COc2ccccc2[N+](=O)[O-])o1 | 31.3 µM (active) | 10.5 µM (active) | > 100 µM (inactive) | 35.6 µM (active) | – | – |
| COc1ccc(C/N=C/c2[nH]c3ccc(Br)c(Cl)c3c2O)cc1 | – | – | – | – | – | EC50 [5]: > 60 µM (not active); IC50 [6]: 59.2 µM (active); EC50 [7]: 1.31 µM (active) |
| COc1ccc(-c2noc(Cc3cccs3)n2)cc1 | 25 µM (active) | 9.93 µM (active) | 27.3 µM (active) | 31.8 µM (active) | – | EC50 [8]: 24.9 µM (active); EC50 (H4): > 120 µM (not active); EC50 [9]: 0.501 µM (active) |
| CN(Cc1ccccc1)C(=O)CCS(=O)(=O)c1ccc2c(c1)NC(=O)CS2 | – | – | – | – | 3.51 µM (active) | – |
